What was measured:
cytosolic AtPGI [1] = target: T1, cytosolic AtPGI (Arabidopsis thaliana, UniProt P34795); assay: coupled spectrophotometric assay; type: biochemical
T1 sequence (P34795 1-560): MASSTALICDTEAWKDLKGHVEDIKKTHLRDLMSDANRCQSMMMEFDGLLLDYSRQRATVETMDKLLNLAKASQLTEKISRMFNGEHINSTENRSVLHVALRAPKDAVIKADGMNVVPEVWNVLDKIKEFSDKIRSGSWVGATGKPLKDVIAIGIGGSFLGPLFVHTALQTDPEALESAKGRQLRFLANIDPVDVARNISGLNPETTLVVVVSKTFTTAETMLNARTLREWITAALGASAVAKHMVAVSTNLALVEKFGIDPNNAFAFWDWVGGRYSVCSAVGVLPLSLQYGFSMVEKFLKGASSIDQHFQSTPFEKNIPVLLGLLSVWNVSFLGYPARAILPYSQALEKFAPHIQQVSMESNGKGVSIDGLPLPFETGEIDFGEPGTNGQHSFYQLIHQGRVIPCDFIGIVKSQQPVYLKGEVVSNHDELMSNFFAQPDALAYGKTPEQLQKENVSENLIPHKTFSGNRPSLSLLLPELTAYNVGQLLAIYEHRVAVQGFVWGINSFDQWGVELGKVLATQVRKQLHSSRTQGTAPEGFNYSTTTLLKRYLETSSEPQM

cytosolic AtPGI [2] = target: T1, cytosolic AtPGI; assay: biochemical
plastidic AtPGI [3] = target: T2, plastidic AtPGI (Arabidopsis thaliana, UniProt Q8H103); assay: coupled spectrophotometric assay; type: biochemical
T2 sequence (Q8H103 49-613): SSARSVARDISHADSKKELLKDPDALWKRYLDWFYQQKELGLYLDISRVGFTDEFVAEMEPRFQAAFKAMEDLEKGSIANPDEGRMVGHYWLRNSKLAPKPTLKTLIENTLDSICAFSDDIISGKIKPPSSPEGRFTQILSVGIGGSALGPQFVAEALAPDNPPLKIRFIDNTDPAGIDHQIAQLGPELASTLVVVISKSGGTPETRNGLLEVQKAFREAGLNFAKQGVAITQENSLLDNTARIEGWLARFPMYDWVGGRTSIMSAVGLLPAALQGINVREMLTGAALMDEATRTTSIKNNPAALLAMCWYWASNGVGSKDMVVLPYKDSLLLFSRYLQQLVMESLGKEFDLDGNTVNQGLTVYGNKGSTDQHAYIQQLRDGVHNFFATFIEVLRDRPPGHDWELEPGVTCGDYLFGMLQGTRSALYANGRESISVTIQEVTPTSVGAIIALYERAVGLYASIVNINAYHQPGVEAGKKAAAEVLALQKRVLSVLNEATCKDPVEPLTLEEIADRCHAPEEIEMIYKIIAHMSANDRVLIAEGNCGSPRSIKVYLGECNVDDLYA

AtG6PDH3 [4] = target: T3, AtG6PDH3 (Arabidopsis thaliana, UniProt Q8L743); assay: spectrophotometric NADPH formation assay; type: biochemical
T3 sequence (Q8L743 1-599 limits assumed): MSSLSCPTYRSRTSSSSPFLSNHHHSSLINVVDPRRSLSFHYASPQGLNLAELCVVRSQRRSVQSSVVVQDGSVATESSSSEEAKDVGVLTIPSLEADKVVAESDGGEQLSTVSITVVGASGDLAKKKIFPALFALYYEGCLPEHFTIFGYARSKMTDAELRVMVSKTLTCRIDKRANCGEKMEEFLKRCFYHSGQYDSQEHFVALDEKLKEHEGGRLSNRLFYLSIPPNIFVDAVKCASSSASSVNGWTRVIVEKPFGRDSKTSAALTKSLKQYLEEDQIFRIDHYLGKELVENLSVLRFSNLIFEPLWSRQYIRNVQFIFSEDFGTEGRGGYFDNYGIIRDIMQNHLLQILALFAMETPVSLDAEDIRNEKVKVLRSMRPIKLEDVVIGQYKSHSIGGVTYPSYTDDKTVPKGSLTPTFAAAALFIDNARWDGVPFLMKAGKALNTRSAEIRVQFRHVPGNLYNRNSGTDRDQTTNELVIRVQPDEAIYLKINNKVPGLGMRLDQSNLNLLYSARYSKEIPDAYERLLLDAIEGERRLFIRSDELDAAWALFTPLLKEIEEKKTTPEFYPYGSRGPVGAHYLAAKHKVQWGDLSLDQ

AtG6PDH1 [5] = target: T4, AtG6PDH1 (Arabidopsis thaliana, UniProt Q43727); assay: spectrophotometric NADPH formation assay; type: biochemical
T4 sequence (Q43727 1-576 limits assumed): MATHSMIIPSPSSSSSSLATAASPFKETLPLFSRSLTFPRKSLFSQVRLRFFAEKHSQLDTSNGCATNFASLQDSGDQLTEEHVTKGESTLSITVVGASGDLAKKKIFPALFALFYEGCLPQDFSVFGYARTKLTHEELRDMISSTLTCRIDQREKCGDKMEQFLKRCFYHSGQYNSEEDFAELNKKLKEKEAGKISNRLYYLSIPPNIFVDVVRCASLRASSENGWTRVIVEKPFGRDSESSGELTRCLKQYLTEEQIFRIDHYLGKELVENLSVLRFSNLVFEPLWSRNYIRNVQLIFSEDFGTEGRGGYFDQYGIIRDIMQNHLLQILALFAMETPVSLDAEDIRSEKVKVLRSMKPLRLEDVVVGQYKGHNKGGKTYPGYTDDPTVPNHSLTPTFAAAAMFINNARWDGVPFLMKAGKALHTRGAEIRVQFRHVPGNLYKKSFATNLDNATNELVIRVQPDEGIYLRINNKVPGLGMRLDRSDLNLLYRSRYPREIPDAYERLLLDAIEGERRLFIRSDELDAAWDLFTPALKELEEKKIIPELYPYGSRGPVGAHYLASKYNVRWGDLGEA

AtG6PDH2 [6] = target: T5, AtG6PDH2 (Arabidopsis thaliana, UniProt Q9FY99); assay: spectrophotometric NADPH formation assay; type: biochemical
T5 sequence (Q9FY99 1-596 limits assumed): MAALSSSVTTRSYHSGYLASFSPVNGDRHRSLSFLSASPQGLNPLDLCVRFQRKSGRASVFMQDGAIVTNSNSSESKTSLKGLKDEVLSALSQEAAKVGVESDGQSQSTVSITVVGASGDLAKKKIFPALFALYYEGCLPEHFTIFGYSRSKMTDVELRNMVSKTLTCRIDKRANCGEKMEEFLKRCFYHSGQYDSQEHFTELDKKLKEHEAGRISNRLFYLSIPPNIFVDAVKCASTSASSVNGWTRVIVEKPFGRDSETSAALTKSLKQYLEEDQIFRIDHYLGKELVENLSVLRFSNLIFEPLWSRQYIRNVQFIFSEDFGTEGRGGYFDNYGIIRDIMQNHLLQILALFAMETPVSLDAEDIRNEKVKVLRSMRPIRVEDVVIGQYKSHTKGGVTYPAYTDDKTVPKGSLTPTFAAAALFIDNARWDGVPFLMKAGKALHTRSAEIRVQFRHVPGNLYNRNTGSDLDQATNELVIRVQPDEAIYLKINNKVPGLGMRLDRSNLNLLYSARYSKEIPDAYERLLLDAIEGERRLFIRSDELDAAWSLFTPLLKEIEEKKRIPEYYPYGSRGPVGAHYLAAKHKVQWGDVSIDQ

plastidic AtPGI [7] = target: T2, plastidic AtPGI; assay: biochemical
AtG6PDH1 [8] = target: T4, AtG6PDH1; assay: spectrophotometric NADPH formation assay; type: biochemical; conditions: substrate inhibition; 0.6 mM NADP+; 150 mM Hepes pH 7.2
AtG6PDH3 [9] = target: T3, AtG6PDH3; assay: spectrophotometric NADPH formation assay; type: biochemical; conditions: substrate inhibition; 0.6 mM NADP+; 150 mM Hepes pH 7.2
AtG6PDH2 [10] = target: T5, AtG6PDH2; assay: spectrophotometric NADPH formation assay; type: biochemical; conditions: substrate inhibition; 0.6 mM NADP+; 150 mM Hepes pH 7.2
purified protein = substrate: NC(=O)c1ccc[n+]([C@@H]2O[C@H](COP(=O)(O)OP(=O)(O)OC[C@H]3O[C@@H](n4cnc5c(N)ncnc54)[C@H](OP(=O)(O)O)[C@@H]3O)[C@@H](O)[C@H]2O)c1; assay: purified protein; conditions: 150 mM Hepes pH 7.2, varied: cofactor

## O=C(O)[C@H](O)[C@@H](O)[C@H](O)[C@H](O)COP(=O)(O)O [6-phosphogluconic acid]
Cytosolic AtPGI [1]
  Ki: 106 µM
Cytosolic AtPGI [2]
  Ki: 44 µM
Plastidic AtPGI [3]
  Ki: 31 µM

## NC(=O)C1=CN([C@@H]2O[C@H](COP(=O)(O)OP(=O)(O)OC[C@H]3O[C@@H](n4cnc5c(N)ncnc54)[C@H](OP(=O)(O)O)[C@@H]3O)[C@@H](O)[C@H]2O)C=CC1 [NADPH]
AtG6PDH3 [4]
  Ki: 112 µM
AtG6PDH1 [5]
  Ki: 59 µM
AtG6PDH2 [6]
  Ki: 0.9 µM

## O=C[C@H](O)[C@H](O)COP(=O)(O)O [erythrose 4-phosphate]
Cytosolic AtPGI [1]
  Ki: 1.5 µM
Cytosolic AtPGI [2]
  Ki: 3.7 µM
Plastidic AtPGI [3]
  Ki: 2.3 µM
Plastidic AtPGI [7]
  Ki: 6 µM

## O=P(O)(O)OC[C@H]1OC(O)[C@H](O)[C@@H](O)[C@@H]1O (stereo partly shown) [glucose 6-phosphate]
AtG6PDH1 [8]
  G6P Ki: 18900 µM
AtG6PDH3 [9]
  G6P Ki: 37000 µM
AtG6PDH2 [10]
  G6P Ki: 30000 µM

B1: AtG6PDH2 (Arabidopsis thaliana) (protein)
chain: MAALSSSVTTRSYHSGYLASFSPVNGDRHRSLSFLSASPQGLNPLDLCVRFQRKSGRASVFMQDGAIVTNSNSSESKTSLKGLKDEVLSALSQEAAKVGVESDGQSQSTVSITVVGASGDLAKKKIFPALFALYYEGCLPEHFTIFGYSRSKMTDVELRNMVSKTLTCRIDKRANCGEKMEEFLKRCFYHSGQYDSQEHFTELDKKLKEHEAGRISNRLFYLSIPPNIFVDAVKCASTSASSVNGWTRVIVEKPFGRDSETSAALTKSLKQYLEEDQIFRIDHYLGKELVENLSVLRFSNLIFEPLWSRQYIRNVQFIFSEDFGTEGRGGYFDNYGIIRDIMQNHLLQILALFAMETPVSLDAEDIRNEKVKVLRSMRPIRVEDVVIGQYKSHTKGGVTYPAYTDDKTVPKGSLTPTFAAAALFIDNARWDGVPFLMKAGKALHTRSAEIRVQFRHVPGNLYNRNTGSDLDQATNELVIRVQPDEAIYLKINNKVPGLGMRLDRSNLNLLYSARYSKEIPDAYERLLLDAIEGERRLFIRSDELDAAWSLFTPLLKEIEEKKRIPEYYPYGSRGPVGAHYLAAKHKVQWGDVSIDQ
Purified protein; 15.4 mM G6P
  Km: 1.3 µM
  kcat: 39.4 s⁻¹

B2: AtG6PDH3 (Arabidopsis thaliana) (protein)
chain: MSSLSCPTYRSRTSSSSPFLSNHHHSSLINVVDPRRSLSFHYASPQGLNLAELCVVRSQRRSVQSSVVVQDGSVATESSSSEEAKDVGVLTIPSLEADKVVAESDGGEQLSTVSITVVGASGDLAKKKIFPALFALYYEGCLPEHFTIFGYARSKMTDAELRVMVSKTLTCRIDKRANCGEKMEEFLKRCFYHSGQYDSQEHFVALDEKLKEHEGGRLSNRLFYLSIPPNIFVDAVKCASSSASSVNGWTRVIVEKPFGRDSKTSAALTKSLKQYLEEDQIFRIDHYLGKELVENLSVLRFSNLIFEPLWSRQYIRNVQFIFSEDFGTEGRGGYFDNYGIIRDIMQNHLLQILALFAMETPVSLDAEDIRNEKVKVLRSMRPIKLEDVVIGQYKSHSIGGVTYPSYTDDKTVPKGSLTPTFAAAALFIDNARWDGVPFLMKAGKALNTRSAEIRVQFRHVPGNLYNRNSGTDRDQTTNELVIRVQPDEAIYLKINNKVPGLGMRLDQSNLNLLYSARYSKEIPDAYERLLLDAIEGERRLFIRSDELDAAWALFTPLLKEIEEKKTTPEFYPYGSRGPVGAHYLAAKHKVQWGDLSLDQ
Purified protein; 7.6 mM G6P
  Km: 0.6 µM
  kcat: 14.6 s⁻¹

B3: AtG6PDH1 (Arabidopsis thaliana) (protein)
chain: MATHSMIIPSPSSSSSSLATAASPFKETLPLFSRSLTFPRKSLFSQVRLRFFAEKHSQLDTSNGCATNFASLQDSGDQLTEEHVTKGESTLSITVVGASGDLAKKKIFPALFALFYEGCLPQDFSVFGYARTKLTHEELRDMISSTLTCRIDQREKCGDKMEQFLKRCFYHSGQYNSEEDFAELNKKLKEKEAGKISNRLYYLSIPPNIFVDVVRCASLRASSENGWTRVIVEKPFGRDSESSGELTRCLKQYLTEEQIFRIDHYLGKELVENLSVLRFSNLVFEPLWSRNYIRNVQLIFSEDFGTEGRGGYFDQYGIIRDIMQNHLLQILALFAMETPVSLDAEDIRSEKVKVLRSMKPLRLEDVVVGQYKGHNKGGKTYPGYTDDPTVPNHSLTPTFAAAAMFINNARWDGVPFLMKAGKALHTRGAEIRVQFRHVPGNLYKKSFATNLDNATNELVIRVQPDEGIYLRINNKVPGLGMRLDRSDLNLLYRSRYPREIPDAYERLLLDAIEGERRLFIRSDELDAAWDLFTPALKELEEKKIIPELYPYGSRGPVGAHYLASKYNVRWGDLGEA
Purified protein; 7.6 mM G6P
  Km: 0.7 µM
  kcat: 57.0 s⁻¹

Reference: article doi:10.1101/442434v2 (biorxiv, 2018)
